We go through 10 compounds from US20170334927A1 (Shanghai Sun-sail Pharmaceutical Science & Technology Co., …, priority 2014, published 2017).

The assay concerns Mycobacterium tuberculosis H37Rv. Kind of assay: Activity test for Mycobacterium tuberculosis (MIC, H37Rv). Type of assay: cell-based. The conditions noted are these: for anti Mycobacterium tuberculosis activity (MIC against H37Rv), times of that of PA-824: relative to PA-824; for anti Mycobacterium tuberculosis activity (MIC against H37Rv), times of that of ethambutol: relative to ethambutol; for MIC: Mycobacterium tuberculosis H37Rv, liquid medium, 37° C., read-out: Minimum inhibitory concentration against H37Rv. Here is the method: The tested strain H37Rv was transferred to liquid medium and cultured for 2 weeks at 37° C.; a small amount of the cultured bacterial solution was pipetted and placed in 4 mL of liquid medium; 10-20 sterile glass beads with a diameter of 2-3 mm were added; the mixture was shaken for 20-30 s and left to sediment for 10-20 min; the supernatant of the bacterial suspension was pipetted and adjusted to a turbidity of 1 MCF (equivalent to 1×10^7 CFU/mL) with the liquid medium for use. Each drug was dissolved to 1 mg/mL with an appropriate amount of DMSO and filtered with a 0.22 μm filter. Then, the solution was diluted to a desired experimental concentration with the liquid medium. The final concentrations of the tested drugs were set as follows: 0.001 μg/mL, 0.002 μg/mL, 0.0039 μg/mL, 0.0078 μg/mL, […], 0.03125 μg/mL, 0.0625 μg/mL, 0.125 μg/mL, 0.25 μg/mL, 0.5 μg/mL and 1 μg/mL, a total of 11 concentration gradients. 100 μL of each of the above-mentioned drug solutions was added to a 96-well microwell plate, then 100 μL bacterial solution with a concentration of 1 mg/mL was added to allow the drug concentration to reach the final set concentration, and cultured at 37° C. Three groups in parallel were set for each drug dilution with inoculation amounts of 100%, 10% and 1%, respectively, while no drug was added to the control group.

Values after ≈ are worked out from the molar mass of the structure shown.

On to `O=[N+]([O-])c1cn2c(n1)OC[C@@H](NCc1ccc(N3C4CCC3CC(Oc3ccc(OC(F)(F)F)cc3)C4)nc1)C2` (stereo partly drawn) [Compound 14, (6S)-2-nitro-N-((6-(3-(4-(trifluoromethoxy)phenoxy)-8-azabicyclo[3.2.1]octan-8-yl)pyrid-3-yl)methyl)-6,7-dihydro-5H-imidazo[2,1-b][1,3]oxazin-6-amine], for which the “anti Mycobacterium tuberculosis activity (MIC against H37Rv), times of that of PA-824” value amounted to 8 times; the “anti Mycobacterium tuberculosis activity (MIC against H37Rv), times of that of ethambutol” value was found to be 64 times; the MIC amounted to 0.0078 µg/mL (≈ 0.0139 µM).

`CC1CN(c2ccc(OC(F)(F)F)cc2)CCN1c1ccc(CN[C@@H]2COc3nc([N+](=O)[O-])cn3C2)cn1` (stereo partly drawn) [Compound 6, (3S)—N-((6-(2-methyl-4-(4-(trifluoromethoxy)phenyl)piperazin-1-yl)pyrid-3-yl)methyl)-7-nitro-3,4-dihydro-2H-imidazo[2,1-b][1,3]oxazin-3-amine]: the “anti Mycobacterium tuberculosis activity (MIC against H37Rv), times of that of PA-824” value is recorded as 32 times; the “anti Mycobacterium tuberculosis activity (MIC against H37Rv), times of that of ethambutol” value came out at 256 times; the MIC was 0.00195 µg/mL (≈ 0.00366 µM).

With `CN(Cc1cnc(N2CCN(c3ccc(OC(F)(F)F)cc3)CC2)nc1)[C@@H]1COc2nc([N+](=O)[O-])cn2C1` [Compound 44, (S)—N-methyl-2-nitro-N-((2-(4-(4-(trifluoromethoxy)phenyl)piperazin-1-yl)pyrimidin-5-yl)methyl)-6,7-dihydro-5H-imidazo[2,1-b][1,3]oxazin-6-amine], the “anti Mycobacterium tuberculosis activity (MIC against H37Rv), times of that of PA-824” value worked out at 32 times; the “anti Mycobacterium tuberculosis activity (MIC against H37Rv), times of that of ethambutol” value is recorded as 256 times; the MIC is 0.00195 µg/mL (≈ 0.00365 µM).

As to `CC[C@@H](CO)NCCN[C@@H](CC)CO` [Ethambutol, reference compound], the MIC stood at 0.5 µg/mL (≈ 2.45 µM).

Consider `COc1nc(N2CCN(c3ccc(OC(F)(F)F)cc3)CC2)ncc1CN[C@@H]1COc2nc([N+](=O)[O-])cn2C1` [Compound 38, (S)—N-((4-methoxy-2-(4-(4-(trifluoromethoxy)phenyl)piperazin-1-yl)pyrimidin-5-yl)methyl)-2-nitro-6,7-dihydro-5H-imidazo[2,1-b][1,3]oxazin-6-amine], for which the MIC was found to be 0.0156 µg/mL (≈ 0.0283 µM).

In the case of `O=[N+]([O-])c1cn2c(n1)OC[C@@H](NCc1ccc(N3CCC4(CC3)CN(c3ccc(OC(F)(F)F)cc3)C4)nc1)C2` [Compound 13, (S)-2-nitro-N-((6-(2-(4-(trifluoromethoxy)phenyl)-2,7-diazaspiro[3.5]nonan-7-yl)pyrid-3-yl)methyl)-6,7-dihydro-5H-imidazo[2,1-b][1,3]oxazin-6-amine], the MIC turned out to be 0.0156 µg/mL (≈ 0.0279 µM).

On to `O=[N+]([O-])c1cn2c(n1)OC[C@@H](NCc1cnc(N3CCC(Oc4ccc(OC(F)(F)F)cc4)CC3)nc1)C2` [Compound 15], for which the MIC is 0.0312 µg/mL (≈ 0.0584 µM).

Consider `CC1CN(c2ccc(CN[C@@H]3COc4nc([N+](=O)[O-])cn4C3)cn2)CCN1c1ccc(OC(F)(F)F)cc1` (stereo partly drawn) [Compound 5, (3S)—N-((6-(3-methyl-4-(4-(trifluoromethoxy)phenyl)piperazin-1-yl)pyrid-3-yl)methyl)-7-nitro-3,4-dihydro-2H-imidazo[2,1-b][1,3]oxazin-3-amine], for which the “anti Mycobacterium tuberculosis activity (MIC against H37Rv), times of that of PA-824” value was found to be 16 times; the “anti Mycobacterium tuberculosis activity (MIC against H37Rv), times of that of ethambutol” value was 128 times; the MIC stood at 0.0039 µg/mL (≈ 0.00731 µM).

With `O=[N+]([O-])c1cn2c(n1)OC[C@@H](NCc1ccc(N3CCC(Oc4ccc(OC(F)(F)F)cc4)C(F)C3)nc1)C2` (stereo partly drawn) [Compound 3, (6S)—N-((6-(3-fluoro-4-(4-(trifluoromethoxy)phenoxy)piperidin-1-yl)pyrid-3-yl)methyl)-2-nitro-6,7-dihydro-5H-imidazo[2,1-b][1,3]oxazin-6-amine], the MIC was 0.0156 µg/mL (≈ 0.0282 µM).

Regarding `O=[N+]([O-])c1cn2c(n1)OC[C@@H](NCc1cnc(N3CC4CN(c5ccc(OC(F)(F)F)cc5)CC4C3)nc1)C2` (stereo partly drawn) [Compound 25], the MIC amounted to 0.0156 µg/mL (≈ 0.0285 µM).
